Literature values in publication PMC8679591, “FAPI-74 PET/CT Using Either ^18F-AlF or Cold-Kit ^68Ga Labeling: Biodistribution, Radiation Dosimetry, and Tumor Delineation in Lung Cancer Patients” (Journal of Nuclear Medicine, 2021).

SMILES	Effective dose
N[C@@H](C[C@H](CCC[18F])C(=O)O)C(=O)O [(S)-4-(3-^18F-fluoropropyl)-L-glutamic acid]	0.032 mSv/MBq
N[C@@H](Cc1ccc(OCC[18F])cc1)C(=O)O [O-(2-^18F-fluoroethyl)-L-tyrosine]	0.016 mSv/MBq
Cc1cn([C@H]2C[C@H]([18F])[C@@H](CO)O2)c(=O)[nH]c1=O [^18F-3′-deoxy-3′-^18F-fluorothymidine, 3′-deoxy-3′-^18F-fluorothymidine]	0.028 mSv/MBq
O=C(O)CC[C@H](NC(=O)N[C@@H](CCCCNC(=O)[C@H](Cc1ccc2ccccc2c1)NC(=O)c1ccc(CNC(=O)[C@H](CCC(=O)O)NC(=O)[C@H](CCC(=O)O)NC(=O)c2ccc([18F])nc2)cc1)C(=O)O)C(=O)O [^18F-PSMA-1007]	0.022 mSv/MBq
C[N+](C)(CF)CCO [^18F-fluorocholine]	0.031 mSv/MBq
O=[N+]([O-])c1nccn1CC(O)C[18F] (centres unmarked) [^18F-fluoromisonidazole]	0.013 mSv/MBq
CNc1ccc(/C=C/c2ccc(OCCOCCOCC[18F])cc2)cc1 [^18F-flurbetaben]	0.015 mSv/MBq
CC(C)(C)n1ncc(OCc2ccc(COCC[18F])cc2)c(Cl)c1=O [^18F-flurpiridaz]	0.019 mSv/MBq
N#C[C@@H]1CCCN1C(=O)CNC(=O)c1ccnc2ccc(OCCCN3CCN(C(=O)CN4CCN(CC(=O)O)CCN(CC(=O)O)CCN(CC(=O)O)CC4)CC3)cc12 [^68Ga-FAPI-2, metal not drawn]	0.008–0.015 mSv/MBq
N#C[C@@H]1CC(F)(F)CN1C(=O)CNC(=O)c1ccnc2ccc(OCCCN3CCN(C(=O)CN4CCN(CC(=O)O)CCN(CC(=O)O)CCN(CC(=O)O)CC4)CC3)cc12 [^68Ga-FAPI-4, metal not drawn]	0.008–0.015 mSv/MBq
O=C([O-])CN(CCN(CC(=O)[O-])Cc1cc(CCC(=O)NCCCCCC(=O)NCCCC[C@H](NC(=O)N[C@@H](CCC(=O)O)C(=O)O)C(=O)O)ccc1[O-])Cc1cc(CCC(=O)O)ccc1[O-].[68Ga+3].[OH3+] [^68Ga-PSMA-11]	0.023 mSv/MBq
